Reference: patent US8933075B2, “Compounds useful as antiviral agents, compositions, and methods of use” (priority 2010, dated 2015)

Tested on: A/Udorn/72 (H3N2) virus
Experiment: Plaque assay in MDCK cells: EC50 by reduction of plaque number
Format: cell-based, influenza virus
Conditions: MDCK

Structure (SMILES)	EC50 [nM]
CC(C)(C)N1C(=O)C[C@@H](C(=O)OCCCc2cc(-c3ccc(Cl)cc3)[nH]c2/C=C2\SC(=S)N(C3C4CC5CC(C4)CC3C5)C2=O)NC1=O (some centres unmarked) [Compound 252]	< 100
CC(C)(C)OC(=O)N[C@@H](CC(N)=O)C(=O)OCCCc1cc(-c2ccc(Cl)cc2)[nH]c1/C=C1\SC(=S)N(C2C3CC4CC(C3)CC2C4)C1=O (some centres unmarked) [Compound 253]	< 100
CC(C)(C)OC(=O)N[C@@H](CC(N)=O)C(=O)OCCCCCc1cc(-c2ccc(Cl)cc2)[nH]c1/C=C1\SC(=S)N(C2C3CC4CC(C3)CC2C4)C1=O (some centres unmarked) [Compound 254]	< 100
CC(C)(C)OC(=O)N[C@@H](CC(N)=O)C(=O)N1CCN(CCCCCc2cc(-c3ccc(Cl)cc3)[nH]c2/C=C2\SC(=S)N(C3CC4CCC3C4)C2=O)CC1 (some centres unmarked) [Compound 255]	< 100
O=C1/C(=C/c2cc(CCCO)c(-c3ccc(Cl)cc3)n2Cc2ccccc2)SC(=S)N1C1CC2CCC1C2 (centres unmarked) [Compound 256]	< 100
O=C1/C(=C/c2cc(CCCO)c(-c3ccc(Cl)cc3)n2Cc2ccccc2)SC(=S)N1C1C2CC3CC(C2)CC1C3 (centres unmarked) [Compound 257]	< 100
Cn1c(-c2ccc(Cl)cc2)cc(CCCO)c1/C=C1\SC(=S)N(C2CC3CCC2C3)C1=O (centres unmarked) [Compound 258]	> 1000
Cn1c(-c2ccc(Cl)cc2)cc(CCCO)c1/C=C1\SC(=S)N(C2C3CC4CC(C3)CC2C4)C1=O (centres unmarked) [Compound 259]	> 1000
Cn1c(-c2ccc(Cl)cc2)cc(CCCCCO)c1/C=C1\SC(=S)N(C2CC3CCC2C3)C1=O (centres unmarked) [Compound 260]	< 100
Cn1c(-c2ccc(Cl)cc2)cc(CCCCCO)c1/C=C1\SC(=S)N(C2C3CC4CC(C3)CC2C4)C1=O (centres unmarked) [Compound 261]	< 100
COc1cccc(-c2cc(CCCCCO)c(/C=C3\SC(=S)N(C4CC5CCC4C5)C3=O)n2C)c1 (centres unmarked) [Compound 262]	> 1000
COc1cccc(-c2cc(CCCCCO)c(/C=C3\SC(=S)N(C4C5CC6CC(C5)CC4C6)C3=O)n2C)c1 (centres unmarked) [Compound 263]	250 to 1000
COc1cccc(-c2cc(CCCO)c(/C=C3\SC(=S)N(C4CC5CCC4C5)C3=O)n2C)c1 (centres unmarked) [Compound 264]	250 to 1000
Cn1c(/C=C2\SC(=S)N(C3CC4CCC3C4)C2=O)cc(C#CCCCO)c1-c1ccc(Cl)cc1 (centres unmarked) [Compound 265]	< 100
COc1cccc(-c2c(C#CCCCO)cc(/C=C3\SC(=S)N(C4CC5CCC4C5)C3=O)n2C)c1 (centres unmarked) [Compound 266]	< 100
COc1cccc(-c2c(C#CCCCOC(=O)[C@H](CC(N)=O)NC(=O)OC(C)(C)C)cc(/C=C3\SC(=S)N(C4C5CC6CC(C5)CC4C6)C3=O)n2C)c1 (some centres unmarked) [Compound 270]	< 100
COc1cccc(-c2c(C#CCCCOC(=O)[C@H](CC(N)=O)NC(=O)OC(C)(C)C)cc(/C=C3\SC(=S)N(C4CC5CCC4C5)C3=O)n2C)c1 (some centres unmarked) [Compound 271]	< 100
Cn1c(/C=C2\SC(=S)N(C3CC4CCC3C4)C2=O)cc(C#CCCCOC(=O)[C@H](CC(N)=O)NC(=O)OC(C)(C)C)c1-c1ccc(Cl)cc1 (some centres unmarked) [Compound 272]	< 100
Cn1c(/C=C2\SC(=S)N(C3CC4CCC3C4)C2=O)cc(C#CCCCOC(=O)[C@@H]2CC(=O)N(C(C)(C)C)C(=O)N2)c1-c1ccc(Cl)cc1 (some centres unmarked) [Compound 273]	100 to 250
O=C1/C(=C/c2sc(-c3ccc(Cl)cc3)cc2-c2ccc(Cl)cc2)SC(=S)N1C1CC2CCC1C2 (centres unmarked) [Compound 274]	< 100
O=C1/C(=C/c2sc(-c3ccc(Cl)cc3)cc2-c2ccc(Cl)cc2)SC(=S)N1C1C2CC3CC(C2)CC1C3 (centres unmarked) [Compound 275]	< 100
O=C1/C(=C/c2sc(-c3ccc(Cl)cc3)cc2CCCO)SC(=S)N1C1CC2CCC1C2 (centres unmarked) [Compound 276]	< 100

Structure (SMILES)	EC50 [nM]
O=C1/C(=C/c2sc(-c3cccc(Cl)c3)cc2CCCCCO)SC(=S)N1C1CC2CCC1C2 (centres unmarked) [Compound 277]	< 100
O=C1/C(=C/c2sc(-c3ccc(Cl)cc3)cc2CCCCCO)SC(=S)N1C1CC2CCC1C2 (centres unmarked) [Compound 278]	< 100
COc1cccc(-c2cc(CCCCCO)c(/C=C3\SC(=S)N(C4C5CC6CC(C5)CC4C6)C3=O)s2)c1 (centres unmarked) [Compound 279]	< 100
COc1cccc(-c2cc(CCCCCO)c(/C=C3\SC(=S)N(C4CC5CCC4C5)C3=O)s2)c1 (centres unmarked) [Compound 280]	< 100
O=C1/C(=C/c2sc(-c3ccc(Cl)cc3)cc2CCCCCO)SC(=S)N1C1C2CC3CC(C2)CC1C3 (centres unmarked) [Compound 281]	< 100
COc1cccc(-c2cc(CCCO)c(/C=C3\SC(=S)N(C4C5CC6CC(C5)CC4C6)C3=O)s2)c1 (centres unmarked) [Compound 282]	< 100
O=C1/C(=C/c2cc(CCCCCO)c(-c3ccc(Cl)cc3)s2)SC(=S)N1C1C2CC3CC(C2)CC1C3 (centres unmarked) [Compound 283]	< 100
O=C1/C(=C/c2cc(CCCCCO)c(-c3ccc(Cl)cc3)s2)SC(=S)N1C1CC2CCC1C2 (centres unmarked) [Compound 284]	< 100
O=C1/C(=C/c2sc(-c3cccc(Cl)c3)cc2C#CCCCO)SC(=S)N1C1C2CC3CC(C2)CC1C3 (centres unmarked) [Compound 285]	< 100
O=C1/C(=C/c2sc(-c3cccc(Cl)c3)cc2C#CCCCO)SC(=S)N1C1CC2CCC1C2 (centres unmarked) [Compound 286]	< 100
O=C1/C(=C/c2cc(C#CCCCO)c(-c3ccc(Cl)cc3)s2)SC(=S)N1C1C2CC3CC(C2)CC1C3 (centres unmarked) [Compound 287]	< 100
O=C1/C(=C/c2cc(C#CCCCO)c(-c3ccc(Cl)cc3)s2)SC(=S)N1C1CC2CCC1C2 (centres unmarked) [Compound 288]	< 100
COc1cccc(-c2sc(/C=C3\SC(=S)N(C4C5CC6CC(C5)CC4C6)C3=O)cc2C#CCCCO)c1 (centres unmarked) [Compound 289]	< 100
O=C1/C(=C/c2sc(-c3ccc(Cl)cc3)cc2C#CCCCO)SC(=S)N1C1C2CC3CC(C2)CC1C3 (centres unmarked) [Compound 290]	< 100
O=C1/C(=C/c2sc(-c3ccc(Cl)cc3)cc2C#CCCCO)SC(=S)N1C1CC2CCC1C2 (centres unmarked) [Compound 291]	< 100
COc1cccc(-c2cc(C#CCCCO)c(/C=C3\SC(=S)N(C4CC5CCC4C5)C3=O)s2)c1 (centres unmarked) [Compound 292]	< 100
CC(C)(C)OC(=O)N[C@@H](CC(N)=O)C(=O)OCCCCCc1cc(-c2ccc(Cl)cc2)sc1/C=C1\SC(=S)N(C2C3CC4CC(C3)CC2C4)C1=O (some centres unmarked) [Compound 308]	< 100
CC(C)(C)N1C(=O)C[C@@H](C(=O)OCCCCCc2cc(-c3cccc(Cl)c3)sc2/C=C2\SC(=S)N(C3C4CC5CC(C4)CC3C5)C2=O)NC1=O (some centres unmarked) [Compound 309]	< 100
COc1cccc(-c2cc(CCCCCOC(=O)[C@H](CC(N)=O)NC(=O)OC(C)(C)C)c(/C=C3\SC(=S)N(C4C5CC6CC(C5)CC4C6)C3=O)s2)c1 (some centres unmarked) [Compound 310]	< 100
CC(C)(C)OC(=O)N[C@@H](CC(N)=O)C(=O)OCCCC#Cc1cc(-c2cccc(Cl)c2)sc1/C=C1\SC(=S)N(C2CC3CCC2C3)C1=O (some centres unmarked) [Compound 311]	< 100
CC(C)(C)OC(=O)N[C@@H](CC(N)=O)C(=O)OCCCC#Cc1cc(-c2cccc(Cl)c2)sc1/C=C1\SC(=S)N(C2C3CC4CC(C3)CC2C4)C1=O (some centres unmarked) [Compound 312]	< 100
COc1cccc(-c2cc(CCCCCOC(=O)[C@H](CC(N)=O)NC(=O)OC(C)(C)C)c(/C=C3\SC(=S)N(C4CC5CCC4C5)C3=O)s2)c1 (some centres unmarked) [Compound 313]	< 100

Structure (SMILES)	EC50 [nM]
COc1cccc(-c2cc(C#CCCCOC(=O)[C@H](CC(N)=O)NC(=O)OC(C)(C)C)c(/C=C3\SC(=S)N(C4CC5CCC4C5)C3=O)s2)c1 (some centres unmarked) [Compound 314]	< 100
COc1cc(COc2ccc3oc(=O)c(-c4ccc(/C=C5\SC(=S)N(C6CC7CCC6C7)C5=O)s4)c(O)c3c2)cc(OC)c1 (centres unmarked) [Compound 315]	< 100
O=C1/C(=C/c2ccc(-c3ccc(Cl)cc3)s2)SC(=S)N1C1CC2CCC1C2 (centres unmarked) [Compound 316]	< 100
O=C1/C(=C/c2ccc(-c3ccc(Cl)cc3)s2)SC(=S)N1C1C2CC3CC(C2)CC1C3 (centres unmarked) [Compound 317]	< 100
COC(=O)COc1ccc2c(O)c(-c3ccc(/C=C4\SC(=S)N(C5CC6CCC5C6)C4=O)o3)c(=O)oc2c1 (centres unmarked) [Compound 318]	< 100
COC(=O)COc1ccc2c(O)c(-c3ccc(/C=C4\SC(=S)N(C5C6CC7CC(C6)CC5C7)C4=O)o3)c(=O)oc2c1 (centres unmarked) [Compound 319]	< 100
CCCCCc1ccc2oc(=O)c(-c3ccc(/C=C4\SC(=S)N(C5CC6CCC5C6)C4=O)o3)c(O)c2c1 (centres unmarked) [Compound 320]	< 100
O=C1/C(=C/c2ccc(-c3c(O)c4cc(OCc5ccc(Cl)cc5)ccc4oc3=O)o2)SC(=S)N1C1CC2CCC1C2 (centres unmarked) [Compound 321]	< 100
O=C1/C(=C/c2ccc(-c3c(O)c4cc(Cl)ccc4oc3=O)o2)SC(=S)N1C1CC2CCC1C2 (centres unmarked) [Compound 322]	< 100
O=C1/C(=C/c2ccc(-c3c(O)c4ccc(OC5CCCCC5)cc4oc3=O)o2)SC(=S)N1C1CC2CCC1C2 (centres unmarked) [Compound 323]	< 100
O=C1/C(=C/c2ccc(-c3c(O)c4ccc(O)cc4oc3=O)o2)SC(=S)N1C1CC2CCC1C2 (centres unmarked) [Compound 324]	< 100
O=C1/C(=C/c2ccc(-c3c(O)c4cc(O)ccc4oc3=O)o2)SC(=S)N1C1CC2CCC1C2 (centres unmarked) [Compound 325]	< 100
COc1cc(COc2ccc3oc(=O)c(-c4ccc(/C=C5\SC(=S)N(C6CC7CCC6C7)C5=O)o4)c(O)c3c2)cc(OC)c1 (centres unmarked) [Compound 326]	< 100
O=C1/C(=C/c2oc(-c3ccc(Cl)cc3)cc2CCCCO)SC(=S)N1C1CC2CCC1C2 (centres unmarked) [Compound 333]	< 100
O=C1/C(=C/c2oc(-c3ccc(Cl)cc3)cc2CCCCCO)SC(=S)N1C1C2CC3CC(C2)CC1C3 (centres unmarked) [Compound 334]	< 100
O=C1/C(=C/c2oc(-c3ccc(Cl)cc3)cc2CCCCO)SC(=S)N1C1C2CC3CC(C2)CC1C3 (centres unmarked) [Compound 335]	< 100
COc1ccc2oc(=O)c(CCC(=O)OCCCc3cc(-c4ccc(Cl)cc4)oc3/C=C3\SC(=S)N(C4CC5CCC4C5)C3=O)c(O)c2c1 (centres unmarked) [Compound 336]	< 100
O=C1/C(=C/c2oc(-c3ccc(C(F)(F)F)cc3)cc2CCCCCO)SC(=S)N1C1CC2CCC1C2 (centres unmarked) [Compound 337]	< 100
O=C1/C(=C/c2oc(-c3ccc(C(F)(F)F)cc3)cc2CCCCCO)SC(=S)N1C1C2CC3CC(C2)CC1C3 (centres unmarked) [Compound 338]	< 100
O=C1/C(=C/c2oc(-c3ccc(OC(F)(F)F)cc3)cc2CCCCCO)SC(=S)N1C1C2CC3CC(C2)CC1C3 (centres unmarked) [Compound 339]	< 100
O=C1/C(=C/c2oc(-c3ccc(OC(F)(F)F)cc3)cc2CCCCCO)SC(=S)N1C1CC2CCC1C2 (centres unmarked) [Compound 340]	< 100
